For assay [1], the system named is Gram positive bacteria (three Staphylococcus aureus strains). As to the kind of experiment: Biofilm formation in polystyrene microtiter plates (crystal violet, OD595), Gram positive bacteria. Format: cell-based. The following applies: one day at 37 °C. The protocol: (§1) All experiments were performed by using sterile 96-wells polystyrene microtiter plates (Nunc, Nuncleon, Roskilde, Denmark) under conditions promoting biofilm formation by the different bacterial genera. The Inhibio compound preparations of the invention; 1,3-cyclohexanedione, 1,4-cyclohexanedione, cyclopentanone, 5-ethylcyclohexane-1,3-dione and 5-methyl-1,3 cyclohexanedione 98% were solved directly in Tryptic Soy Broth (TSB) 1+1 or Liquid Microbiology Broth (LB) broth without NaCl (LB^wo/NaCl) to obtain the test concentrations, i.e. from 1 mg/ml to 10 mg/ml.
Three Staphylococcus aureus strains of animal origin were used in this study. All strains were stored at −80° C. in Brain Heart Infusion Broth (BHI) (Difco, BD, Franklin Lakes, N.J., USA) supplemented with 15% glycerine (Merck KGaA, Darmstadt, Germany) and were recovered on blood agar at 37.0±1.0° C. The bacterial cultures were then transferred into TSB and were incubated statically overnight at 37.0±1.0° C. to obtain an overnight working culture. A total of 2 μl of this suspension was transferred to each 96 wells of polystyrene microtiter plates (Nunc, Nuncleon, Roskilde, Denmark) containing 198 μl TSB 1+1 with dissolved Inhibio compounds in the following concentrations: 0 mg/ml, 1 mg/ml and 10 mg/ml for 1,3-cyclohexanedione; 0 mg/ml and 10 mg/ml for 1,4-cyclohexanedione; and 0 mg/ml, 1 mg/ml, 2 mg/ml and 10 mg/ml for 5-ethylcyclohexane-1,3-dione and 5-Methyl-1,3-cyclohexanedione in the total amount of broth. Three parallels of each strain were used and the microtiter plates were incubated statically for one day, at 37±1.0° C. After incubation, OD595 was measured in a microplate photometer (Multiscan EX; Thermo Fisher Scientific Inc, Waltham, Mass., USA) before the plates were gently washed three times with 290 μl tap water. The plates were dried in room temperature before addition of 220 μl 1% crystal violet (Sigma-Aldrich, St. Louis, Mo., USA). After 30 minutes incubation in room temperature, the plates were washed three times with tap water before the addition of 220 μl ethanol:acetone (70:30 w:w) to dissolve the bound dye. The plates were incubated for 10 minutes in room temperature before OD595 was measured after the bound dye was dissolved using ethanol:acetone. For each strain, the result was calculated by subtracting the median OD595 of the three parallels of the control (test broth only) from the median OD595 of the three parallels of sample. Further, the average result of all three Gram positive strains included in the study were calculated. Three independent experiments were performed and the average was evaluated.

The test system of assay [2] is Gram negative bacteria (Salmonella isolates). As to the kind of experiment: Biofilm formation in polystyrene microtiter plates (crystal violet, OD595), Gram negative bacteria. Format: cell-based, Salmonella ser. Typhimurium, Salmonella ser. Agona. As to conditions: 10 mg/ml, two days at 20 °C. The protocol:
as §1
(§2) One Salmonella ser. Typhimurium (S. Typhimurium), two Salmonella ser. Agona (S. Agona) and two Escherichia coli (E. coli) isolates were used in these studies. The studies performed using 1,3-cyclohexanedione and 1,4-cyclohexanedione were done on Salmonella isolates only. The studies comparing Menthone to 1,3-cyclohexanedione were using two E. coli strains, E. coli 1242 and E. coli 1153, see FIG. 11. The Salmonella isolates were isolated from Norwegian feed factories except one S. Typhimurium strain which was a culture collection strain (ATCC 14028). The E. coli isolates were of animal origin. All strains were stored at −80° C. in BHI supplemented with 15% glycerine and were recovered on blood agar at 37.0±1.0° C. The bacterial cultures were then transferred into LB broth and incubated statically overnight at 37.0±1.0° C. to obtain an overnight working culture. A total of 30 μl of this suspension was transferred to each well in 96 wells polystyrene microtiter plates (Nunc, Nuncleon, Roskilde, Denmark) in triplets. The wells were containing 100 μl LB^wo/NaCl (bacto-tryptone 10 g/l, yeast extract 5 g/l) with 1,3-cyclohexanedione dissolved in concentration 0 mg/ml, 1 mg/ml and 10 mg/ml in the total amount of broth and 1,4-cyclohexanedione and cyclopentanone at 0 mg/ml and 10 mg/ml. The microtiter plates were incubated statically for two days, at 20±1.0° C. After incubation, OD595 was measured before the plates were gently washed one time with 150 μl tap water. The plates were dried in room temperature before addition of 140 μl 1% crystal violet (Sigma-Aldrich). After 30 minutes incubation in room temperature, the plates were washed three times with tap water before addition of 140 μl ethanol:acetone (70:30 w:w) and incubated for another 10 minutes in room temperature. OD595 was measured in a microplate photometer (Multiscan EX) after the bound dye was dissolved using ethanol:acetone. For each strain, the result was calculated by subtracting the median OD595 of the three parallels of the control (test broth only) from the median OD595 of the three parallels of sample. Further, the averages of the Gram negative strains were calculated. Three independent experiments were performed and the average was evaluated.

The test system of assay [3] is SRB isolate ATCC 29579 Desulfovibrio vulgaris subspecies vulgaris. Nature of the assay: Biofilm produced by SRB (sulphate reducing bacteria) on carbon steel coupon in fluids. Format: cell-based. The following applies: 10 mg/ml, 20 °C for 12 days. The protocol:
One SRB isolate (the culture collection strain: ATCC 29579 Desulfovibrio vulgaris subspecies vulgaris) was tested. 1,4-cyclohexanedione and cyclopentanone were diluted in the culture medium ATCC 1249 to a concentration of 10 mg/ml (1%) and added to each their 50 ml Falcon centrifugal tube. A third tube, with 10 ml of medium only (ATCC 1249) was included as a control. 50 μl SRB starting culture was added to each of the three tubes together with a carbon steel coupon. Biofilm was formed on the coupon by incubating at 20° C. for 12 days. After incubation, the coupons were washed in 40 ml sterile saline to remove loosely adhered cells. A sample from this fluid was injected into SRB medium and blackening of the medium was visualized, showing that there were still free-floating bacteria present.

The subject of assay [4] is E. coli 1242 and E. coli 1153. As to the kind of experiment: Biofilm formation in microtiter plates, comparison of 1,3-cyclohexanedione and menthone. The following applies: 1 mg/ml, two values, one per strain (E. coli 1242, E. coli 1153). Format: cell-based, Escherichia coli. The protocol: as §1
as §2, with “A total of 30 μl of this suspension was transferred to each well in 96 wells polystyrene microtiter plates (Nunc, Nuncleon, Roskilde, Denmark) in triplets. The wells were containing 100 μl LB^wo/NaCl (bacto-tryptone 10 g/l, yeast extract 5 g/l) with 1,3-cyclohexanedione dissolved in concentration 0 mg/ml, 1 mg/ml and 10 mg/ml in the total amount of broth and 1,4-cyclohexanedione and cyclopentanone at 0 mg/ml and 10 mg/ml. The microtiter plates were incubated statically for two days, at 20±1.0° C.” left out, “The plates were dried in room temperature before addition of 140 μl 1% crystal violet (Sigma-Aldrich). After 30 minutes incubation in room temperature, the plates were washed three times with tap water before addition of 140 μl ethanol:acetone (70:30 w:w) and incubated for another 10 minutes in room temperature.” left out

Each structure is given as a SMILES string. “And” between values parts separate entries of the source, which are not always exact repeats. Identical values can stand only once.

`O=C1CCC(=O)CC1` [1,4-cyclohexanedione]: the “decrease in biofilm formation, percentage of the control” value (from here on “decrease … percentage of the control”) in assay [1] (10 mg/ml) came out at 53%; in assay [2] it was 91%. Besides, the “biofilm visualized on carbon steel coupon” value in assay [3] is “only scarce amount of biofilm could be visualized”.
On to `CCC1CC(=O)CC(=O)C1` [5-ethylcyclohexane-1,3-dione], for which the “decrease … percentage of the control” value in assay [1] (1 mg/ml) is listed as 55%; in assay [1] (2 mg/ml) it was 74%; in assay [1] (10 mg/ml), 98%.
The matching figures for `CC1CC(=O)CC(=O)C1` [5-methyl-1,3-cyclohexanedione]: 32%, 85% and 98%.
As to `O=C1CCCC1` [cyclopentanone, Cyclopentanone], the “decrease … percentage of the control” value in assay [2] was 77%. The “biofilm visualized on carbon steel coupon” value in assay [3] is reported as “only scarce amount of biofilm could be visualized”.
Regarding `CC1CCC(C(C)C)C(=O)C1` (stereo not drawn) [menthone, 2-isopropyl-5-methylcyclohexane-1-on, reference compound], in assay [4], the “decrease in biofilm formation” value is 27% and 48%.
